Source: ChEMBL document CHEMBL3585315, “Discovery of mammalian target of rapamycin (mTOR) kinase inhibitor CC-223” (J Med Chem, 2015)

Key:
[1] = molecular target: Phosphatidylinositol 4,5-bisphosphate 3-kinase catalytic subunit alpha isoform (Homo sapiens, UniProt P42336); assay: Inhibition of PI3K-alpha (unknown origin) by mobility shift assay
[2] = Metabolic stability in rat S9 fraction assessed as compound remaining measured at 60 mins; assay type: ADME; settings: read-out: Stability
[3] = Inhibition of CYP450 (unknown origin) up to 10 uM; assay type: ADME; settings: human
[4] = AUC (0 to infinity) in rat at 5 mg/kg, po; assay type: ADME, organism-based; set-up: dose 5 mg/kg, time infinity, route oral; settings: in vivo
[5] = Clearance in rat at 2 mg/kg, iv; assay type: ADME, organism-based; settings: in vivo
[6] = species on record: Mus musculus; assay: animal or person; settings: PC-3, po, 24 h, read-out: INH
[7] = Genotoxicity in mouse erythrocytes by micronucleus test; assay type: toxicity, cell-based; settings: erythrocyte
[8] = system: PC-3; assay: Antitumor activity against human PC3 cells xenografted in mouse assessed as tumor volume reduction at 25 mg/kg, po qd for 21 days relative to control; assay type: functional; set-up: scale not given: the % may be the effect or the level left
[9] = species on record: Mus musculus; assay: animal or person; settings: PC-3, po, 8 h, read-out: INH
[10] = system: PC-3; settings: Homo sapiens, TDE = time-dependent effect
[11] = system: Salmonella typhi; assay: Mutagenicity in Salmonella typhi by Ames test; assay type: toxicity, organism-based; settings: salmonella enterica subsp. enterica serovar […]
[12] = species on record: Mus musculus; assay: animal or person; settings: PC-3, po, 4 h, read-out: INH
[13] = species on record: Mus musculus; assay: animal or person; settings: PC-3, po, 4 h, read-out: INH; remark: listed apart in the source
[14] = molecular target: Vascular endothelial growth factor receptor 3 (Homo sapiens, UniProt P35916); assay: Inhibition of Flt4 (unknown origin)
[15] = species on record: Mus musculus; assay: animal or person; settings: PC-3, po, 8 h, read-out: INH; remark: listed apart in the source
[16] = species on record: Mus musculus; assay: animal or person; settings: PC-3, po, 24 h, read-out: INH; remark: listed apart in the source
[17] = Oral bioavailability in rat at 5 mg/kg; assay type: ADME, organism-based; settings: in vivo
[18] = system: PC-3; settings: Homo sapiens
[19] = Cmax in rat at 5 mg/kg, po; assay type: ADME, organism-based; set-up: dose 5 mg/kg, route oral; settings: in vivo
[20] = system: PC-3; assay: Cytotoxicity against human PC3 cells assessed as inhibition of cell proliferation after 3 days by WST1 assay; assay type: functional, cell-based; settings: PC-3, 72 h
[21] = Inhibition of mTORC2 in human PC3 cells assessed as inhibition of AKT phosphorylation at S473 by sandwich immunoassay; assay type: cell-based; settings: PC-3
[22] = molecular target: Serine/threonine-protein kinase mTOR (Homo sapiens, UniProt P42345); assay: Inhibition of recombinant mTOR (unknown origin) using GST-p70S6 as substrate after 60 mins by TR-FRET analysis
[23] = Tmax in rat at 5 mg/kg, po; assay type: ADME, organism-based; settings: in vivo
[24] = species on record: Mus musculus; assay: animal or person; settings: PC-3, po, 2 h, read-out: INH
[25] = cells; settings: Homo sapiens, PC-3, 1 h
[26] = system: PC-3; assay: Antitumor activity against human PC3 cells xenografted in mouse assessed as tumor volume reduction at 50 mg/kg, po qd for 21 days relative to control; assay type: functional; set-up: scale not given: the % may be the effect or the level left
[27] = system: PC-3; settings: Homo sapiens, TDE = time-dependent effect; remark: listed apart in the source
[28] = species on record: Mus musculus; assay: animal or person; settings: PC-3, po, 2 h, read-out: INH; remark: listed apart in the source
[29] = system: PC-3; assay: Antitumor activity against human PC3 cells xenografted in mouse assessed as tumor volume reduction at 100 mg/kg, po bid with 10 hrs separation between morning and evening doses for 21 days relative to control; assay type: functional; set-up: scale not given: the % may be the effect or the level left
[30] = system: PC-3; settings: Homo sapiens, TDE = time-dependent effect; remark: listed apart in the source
[31] = system: PC-3; settings: Homo sapiens; remark: listed apart in the source
[32] = Cmax in rat at 10 mg/kg, po; assay type: ADME, organism-based; set-up: dose 10 mg/kg, route oral; settings: in vivo
[33] = Tmax in rat at 10 mg/kg, po; assay type: ADME, organism-based; settings: in vivo
[34] = Oral bioavailability in rat at 10 mg/kg; assay type: ADME, organism-based; settings: in vivo
[35] = AUC (0 to infinity) in rat at 10 mg/kg, po; assay type: ADME, organism-based; set-up: dose 10 mg/kg, route oral, time infinity; settings: in vivo

Chain of Phosphatidylinositol 4,5-bisphosphate 3-kinase catalytic subunit alpha isoform (P42336 whole entry, canonical isoform): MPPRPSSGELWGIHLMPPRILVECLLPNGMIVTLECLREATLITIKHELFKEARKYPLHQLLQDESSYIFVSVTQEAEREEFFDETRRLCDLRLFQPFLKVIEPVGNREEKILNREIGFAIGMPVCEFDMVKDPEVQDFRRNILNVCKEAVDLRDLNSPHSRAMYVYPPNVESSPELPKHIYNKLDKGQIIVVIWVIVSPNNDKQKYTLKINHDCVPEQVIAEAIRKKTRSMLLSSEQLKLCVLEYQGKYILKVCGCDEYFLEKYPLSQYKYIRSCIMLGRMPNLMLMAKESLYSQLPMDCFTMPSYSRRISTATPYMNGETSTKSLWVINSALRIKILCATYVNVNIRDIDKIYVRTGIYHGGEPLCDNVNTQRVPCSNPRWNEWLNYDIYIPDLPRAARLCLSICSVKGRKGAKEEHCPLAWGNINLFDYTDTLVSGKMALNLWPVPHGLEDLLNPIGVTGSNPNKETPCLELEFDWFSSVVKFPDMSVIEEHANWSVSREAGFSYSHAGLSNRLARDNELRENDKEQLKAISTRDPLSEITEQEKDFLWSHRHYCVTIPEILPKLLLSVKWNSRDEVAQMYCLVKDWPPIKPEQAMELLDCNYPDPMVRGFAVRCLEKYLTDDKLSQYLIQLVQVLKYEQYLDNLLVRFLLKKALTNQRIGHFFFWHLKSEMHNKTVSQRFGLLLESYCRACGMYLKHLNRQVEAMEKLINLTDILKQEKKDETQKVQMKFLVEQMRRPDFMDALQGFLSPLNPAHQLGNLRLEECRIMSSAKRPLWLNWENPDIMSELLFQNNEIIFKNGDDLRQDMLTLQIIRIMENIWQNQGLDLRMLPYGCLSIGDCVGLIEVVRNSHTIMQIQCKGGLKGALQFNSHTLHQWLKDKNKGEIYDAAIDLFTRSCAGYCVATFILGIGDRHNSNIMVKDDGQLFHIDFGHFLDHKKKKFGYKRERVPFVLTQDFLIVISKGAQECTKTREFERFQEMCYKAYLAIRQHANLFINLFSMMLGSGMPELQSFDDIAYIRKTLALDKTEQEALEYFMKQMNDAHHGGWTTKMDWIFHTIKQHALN
Chain of Vascular endothelial growth factor receptor 3 (P35916 whole entry): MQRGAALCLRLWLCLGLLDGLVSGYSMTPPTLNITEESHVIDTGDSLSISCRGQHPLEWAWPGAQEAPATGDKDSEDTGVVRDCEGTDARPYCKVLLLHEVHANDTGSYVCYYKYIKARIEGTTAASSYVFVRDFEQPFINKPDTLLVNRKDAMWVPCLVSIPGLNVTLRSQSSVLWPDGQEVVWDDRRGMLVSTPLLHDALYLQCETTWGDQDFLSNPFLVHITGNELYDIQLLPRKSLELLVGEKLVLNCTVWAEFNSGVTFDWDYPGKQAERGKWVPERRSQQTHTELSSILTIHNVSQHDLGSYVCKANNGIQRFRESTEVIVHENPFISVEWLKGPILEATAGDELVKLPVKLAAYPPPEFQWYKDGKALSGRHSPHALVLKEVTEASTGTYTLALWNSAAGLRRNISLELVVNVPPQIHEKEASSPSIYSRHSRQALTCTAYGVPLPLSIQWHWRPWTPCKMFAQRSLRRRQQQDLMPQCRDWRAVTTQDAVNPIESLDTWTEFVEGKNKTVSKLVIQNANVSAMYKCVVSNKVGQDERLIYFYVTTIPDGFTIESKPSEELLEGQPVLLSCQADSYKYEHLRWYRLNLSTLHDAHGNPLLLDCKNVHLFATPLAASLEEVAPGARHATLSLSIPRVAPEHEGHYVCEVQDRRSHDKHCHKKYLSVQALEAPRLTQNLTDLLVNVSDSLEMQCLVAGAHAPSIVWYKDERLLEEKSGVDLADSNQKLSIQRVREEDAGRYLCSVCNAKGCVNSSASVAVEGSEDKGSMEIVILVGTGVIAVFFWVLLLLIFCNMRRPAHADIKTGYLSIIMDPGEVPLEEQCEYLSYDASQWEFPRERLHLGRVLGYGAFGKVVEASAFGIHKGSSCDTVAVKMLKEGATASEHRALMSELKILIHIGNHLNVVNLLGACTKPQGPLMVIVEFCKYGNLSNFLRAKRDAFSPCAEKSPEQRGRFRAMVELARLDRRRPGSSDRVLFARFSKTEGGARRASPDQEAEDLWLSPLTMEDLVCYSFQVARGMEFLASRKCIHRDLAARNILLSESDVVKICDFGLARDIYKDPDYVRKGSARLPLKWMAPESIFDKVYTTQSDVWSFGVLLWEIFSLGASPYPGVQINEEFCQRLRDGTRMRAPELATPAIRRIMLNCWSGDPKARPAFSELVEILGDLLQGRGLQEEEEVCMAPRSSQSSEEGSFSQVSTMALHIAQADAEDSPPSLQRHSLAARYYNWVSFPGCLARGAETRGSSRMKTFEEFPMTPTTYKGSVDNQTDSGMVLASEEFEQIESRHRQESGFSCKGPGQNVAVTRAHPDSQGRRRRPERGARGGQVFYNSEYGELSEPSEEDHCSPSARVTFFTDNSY

Structure (SMILES) | IC50 [1] | remaining at 1 h [2] | AUC(0-inf) [4] | inhibition in vivo at 100 mg/kg [6] | inhibition in vivo at 100 mg/kg [9] | inhibition in vivo at 100 mg/kg [12] | inhibition in vivo at 100 mg/kg [13] | inhibition in vivo at 100 mg/kg [15] | inhibition in vivo at 100 mg/kg [16] | Cmax [19] | IC50 [25] | other results
CO[C@H]1CC[C@@H](CN2CC(=O)Nc3ncc(-c4ccc(C(C)(C)O)nc4)nc32)CC1 | 7600 nM | 39% | – | – | – | – | – | – | – | – | – | –
CO[C@H]1CC[C@H](N2C(=O)CNc3ncc(-c4ccc(C(C)(C)O)nc4)nc32)CC1 [ONATASERTIB] | – | – | 26 µM·h | 91% | 92% | 80% | 91% | 82% | 86% | 2900 nM | – | inhibition (INH) [3]: Not Active; clearance [5]: 4.9 mL/min/kg; Activity [7]: Non-toxic; Activity [8]: 87%; TGI [10]: tde; Activity [11]: Non-toxic; IC50 [14]: 651 nM; bioavailability [17]: 59%; TGI [18]: Dose-dependent effect
O=C1CN(CCC2CCOCC2)c2nc(-c3ccc(-c4nc[nH]n4)nc3)cnc2N1 | 1600 nM | – | – | – | – | – | – | – | – | – | – | –
CC(C)(O)c1ccc(-c2cnc3c(n2)N(C2CCOCC2)CC(=O)N3)cn1 | 4700 nM | – | – | – | – | – | – | – | – | – | – | –
CC(C)(O)c1ccc(-c2cnc3[nH]c(=O)n(CCC4CCOCC4)c3n2)cn1 | > 30000 nM | 91% | 4.8 µM·h | – | – | – | – | – | – | 1800 nM | – | clearance [5]: 15 mL/min/kg; IC50 [20]: 2360 nM; IC50 [21]: 638 nM; IC50 [22]: 64 nM; Tmax [23]: 30 min; bioavailability [17]: 43%
CC(C)(O)c1ccc(-c2cnc3c(n2)N(C2CCOCC2)C(=O)CN3)cn1 | 3200 nM | – | – | – | – | – | – | – | – | – | – | –
CC(C)(O)c1ccc(-c2cnc3c(n2)N(CC2CCOCC2)CC(=O)N3)cn1 | > 30000 nM | 100% | – | 83% | 88% | 73% | 86% | 71% | 65% | – | 320 nM | inhibition in vivo at 100 mg/kg [24]: 85%; Activity [26]: 84%; TGI [27]: tde; inhibition in vivo at 100 mg/kg [28]: 88%; TGI [18]: Dose-dependent effect
COCCN1CC(=O)Nc2ncc(-c3ccc(C(C)(C)O)nc3)nc21 | 10500 nM | – | – | – | – | – | – | – | – | – | – | –
CC(C)(O)c1ccc(-c2cnc3c(n2)N(CCC2CCOCC2)CC(=O)N3)cn1 | – | 95% | 11 µM·h | 0% | 64% | 63% | 63% | 67% | 28% | 1500 nM | 110 nM | clearance [5]: 23 mL/min/kg; inhibition in vivo at 100 mg/kg [24]: 74%; Activity [29]: 72%; inhibition in vivo at 100 mg/kg [28]: 87%; TGI [30]: tde; TGI [31]: Dose-dependent effect; Tmax [23]: 90 min; bioavailability [17]: 100%
CC(C)(O)c1ccc(-c2cnc3c(n2)N(CCC2CCOCC2)C(=O)CN3)cn1 | – | 73% | 14 µM·h | 59% | 88% | 63% | 80% | 78% | 69% | 1700 nM | 90 nM | clearance [5]: 9 mL/min/kg; inhibition in vivo at 100 mg/kg [24]: 82%; Activity [26]: 59%; TGI [27]: tde; inhibition in vivo at 100 mg/kg [28]: 71%; Tmax [23]: 36 min; bioavailability [17]: 58%; TGI [18]: Dose-dependent effect
CO[C@H]1CC[C@@H](N2CC(=O)Nc3ncc(-c4ccc(C(C)(C)O)nc4)nc32)CC1 | 11100 nM | – | 26.6 µM·h | 70% | 52% | 34% | 54% | 59% | 45% | 2770 nM | 330 nM | inhibition in vivo at 100 mg/kg [24]: 72%; inhibition in vivo at 100 mg/kg [28]: 80%
CC(C)(O)c1ccc(-c2cnc3c(n2)N([C@H]2CC[C@H](O)CC2)C(=O)CN3)cn1 | 1900 nM | – | 9.23 µM·h | – | – | – | – | – | – | 2200 nM | – | –
O=c1[nH]c2ncc(-c3ccc(-c4nc[nH]n4)cc3)nc2n1CCC1CCOCC1 | – | 93% | – | – | – | – | – | – | – | – | – | clearance [5]: 32 mL/min/kg; Cmax [32]: 24 nM; Tmax [33]: 60 min; bioavailability [34]: 0.85%; AUC(0-inf) [35]: 0.11 µM·h
CC(C)(O)c1ccc(-c2cnc3c(n2)N(CC2CCOCC2)C(=O)CN3)cn1 | 3800 nM | 83% | 9.9 µM·h | 91% | 94% | 86% | 93% | 81% | 80% | 1600 nM | 130 nM | –
COCCN1C(=O)CNc2ncc(-c3ccc(C(C)(C)O)nc3)nc21 | 6200 nM | 89% | 29 µM·h | 91% | 91% | 87% | 82% | 84% | 77% | 5600 nM | 610 nM | –
CO[C@H]1CC[C@H](CN2C(=O)CNc3ncc(-c4ccc(C(C)(C)O)nc4)nc32)CC1 | 4700 nM | 55% | – | – | – | – | – | – | – | – | – | –
CO[C@H]1CC[C@H](N2CC(=O)Nc3ncc(-c4ccc(C(C)(C)O)nc4)nc32)CC1 | 16400 nM | 94% | 90 µM·h | 85% | 85% | 62% | 90% | 69% | 61% | 6300 nM | 350 nM | clearance [5]: 1.7 mL/min/kg; inhibition in vivo at 100 mg/kg [24]: 75%; Activity [26]: 90%; TGI [27]: tde; inhibition in vivo at 100 mg/kg [28]: 87%; bioavailability [17]: 70%; TGI [18]: Dose-dependent effect
O=C1CN(CCC2CCOCC2)c2nc(-c3ccc(-c4nc[nH]n4)cc3)cnc2N1 | – | 61% | – | – | – | – | – | – | – | – | – | clearance [5]: 13.8 mL/min/kg; Cmax [32]: < 2.13 nM
Cc1cc(-c2nc[nH]n2)ccc1-c1cnc2c(n1)N(CCC1CCOCC1)CC(=O)N2 | 200 nM | – | – | – | – | – | – | – | – | – | – | –
CO[C@H]1CC[C@H](CN2CC(=O)Nc3ncc(-c4ccc(C(C)(C)O)nc4)nc32)CC1 | 20200 nM | 77% | 7.25 µM·h | 0% | 64% | 55% | 80% | 55% | 0% | 700 nM | 160 nM | –
O=C1CNc2ncc(-c3ccc(-c4ncn[nH]4)cc3)nc2N1CCC1CCOCC1 | 100 nM | 48% | – | – | – | – | – | – | – | – | – | –
Cc1cc(-c2nc[nH]n2)ccc1-c1cnc2c(n1)N(CCC1CCOCC1)C(=O)CN2 | 120 nM | – | – | – | – | – | – | – | – | – | – | –
CO[C@H]1CC[C@@H](CN2C(=O)CNc3ncc(-c4ccc(C(C)(C)O)nc4)nc32)CC1 | 2500 nM | – | – | – | – | – | – | – | – | – | – | –
CC(C)(O)c1ccc(-c2cnc3c(n2)N([C@H]2CC[C@@H](O)CC2)C(=O)CN3)cn1 | 2800 nM | – | – | – | – | – | – | – | – | – | – | –
CC(C)(O)c1ccc(-c2cnc3c(n2)N(CC2CCCCC2)CC(=O)N3)cn1 | 17700 nM | 16% | – | – | – | – | – | – | – | – | – | –
